Publication PMC5354814, “In silico and in vitro drug screening identifies new therapeutic approaches for Ewing sarcoma” (Oncotarget, 2016)
Like-named read-outs stand apart in the source and are kept apart here.

What was measured:
[1] = parameters: method as in ref 19 (a number printed in a supplementary file, which may have a reference list of its own: not looked up in the article's list); conditions: dog, cited from earlier work
[2] = cited from earlier work
A673 = experiment: In vitro high-throughput screen of FDA-approved drug library (CellTiter-Glo); type: cell-based; conditions: 1 μmol/L drug, 72 hours
Method: (§1) We screened, in parallel to the three computational approaches, an FDA-approved drug library containing 2,316 drugs (1,536 unique chemical entities). […] The drug screening study protocol employed is summarized in Supplementary Table S1.
(§2) Cells were grown to 80–90% confluence, harvested and aliquoted into 384-well plates (black μClear microplates, Greiner bio-one, Germany) at concentrations of 750–1,500 cells per well in a total volume of 25 μl/well using a Matrix Wellmate (Thermo Scientific). Cells were cultured for 72 hours in a 5% CO2 atmosphere at 37°C. Aliquots of 25 μl CellTiter-Glo® Reagent (Promega) were added directly to each well, the plates were incubated at room temperature for 20 min and the luminescence signal was measured according to the manufacturer's protocol. The measurements were made using Infinite® M200 Pro plate reader (Tecan, Switzerland). […] Data were normalized to percentage inhibition. […]
(§3) (A) Color scale for drug inhibition values. […]

Hs 919.T. = experiment: as above; type: cell-based; conditions: 1 μmol/L drug, 72 hours, control cell line
Method: as §1, §2, §3

SK-ES-1 = experiment: as above; type: cell-based; conditions: 1 μmol/L drug, 72 hours
Method: as §1, §2, §3

RD-ES = experiment: as above; type: cell-based; conditions: 1 μmol/L drug, 72 hours
Method: as §1, §2, §3

[3] = mice, 18 months, cited from earlier work
[4] = parameters: method as in ref 19 (a number printed in a supplementary file, which may have a reference list of its own: not looked up in the article's list); conditions: dogs, 0.6 - 1.2 mg auranofin/kg p.o.; cited from earlier work
[5] = cited from earlier work; for LD50: PO
BALB/3T3 cell = system: BALB/3T3 cell; parameters: method as in ref 18, ref 19; conditions: cited from earlier work
[6] = parameters: method as in ref 19 (a number printed in a supplementary file, which may have a reference list of its own: not looked up in the article's list); conditions: 2.5 µg/mL; cited from earlier work
[7] = parameters: method as in ref 19 (a number printed in a supplementary file, which may have a reference list of its own: not looked up in the article's list); conditions: rats, cited from earlier work
[8] = cited from earlier work; remark: listed apart in the source
[9] = system: human neutrophil and monocyte; parameters: method as in ref 19 (a number printed in a supplementary file, which may have a reference list of its own: not looked up in the article's list); conditions: 0.1 - 1.0 µg auranofin/mL; cited from earlier work
[10] = parameters: method as in ref 19 (a number printed in a supplementary file, which may have a reference list of its own: not looked up in the article's list); conditions: cited from earlier work

CC(=O)OC[C@H]1O[C@@H]([S-])[C@H](OC(C)=O)[C@@H](OC(C)=O)[C@@H]1OC(C)=O.CCP(CC)CC.[Au+] [Auranofin, auranofin]
absorption after oral dosing [1]: 26% | blood gold in plasma proteins [1]: 17% | blood gold in red blood cells [1]: 82% | urinary excretion [1]: 16% | elimination in feces ([1]; within 21 days): 83% | teratogenic effects in pregnant mice ([2]; 5 mg/kg/day): no ter atogenic | embryotoxic or teratogenic effect in mice ([2]; oral 0.2, 1 and 5 mg/kg/day, days 6-15 of pregnancy): no embryotoxic or teratogenic effect | % Inhibition A673 (A673): 98% | % Inhibition Hs 919.T. (Hs 919.T.): < 50% | % Inhibition SK-ES-1 (SK-ES-1): 99% | % Inhibition RD-ES (RD-ES): 100% | instances of tumors above controls ([3]; oral 1, 3 and 9 mg/kg/day): no statistica ll y significant increase | tumor findings ([3]; oral 1, 3 and 6-9 mg/kg/day): increase in benign | antidiuretic effect [4]: not in dogs | LD50 ([5]; Mouse B6C3F1, F): 187 mg/kg | LD50 ([5]; Mouse B6C3F1, M): 190 mg/kg | LD50 ([5]; Mouse CF1, F): 225 mg/kg | acute oral LD50 ([5]; adult mice): 310 mg/kg | mutation effects (BALB/3T3 cell): no m utation effects | pokeweed mitogen-induced immunoglobulin production [6]: inhibited | chronic toxicity, histological examination ([7]; oral 3.6, 12 and 23 mg/kg/day, 12 months): dose-related karyomegaly and cytomegaly of the renal tubular epithelial | subacute toxicity findings ([7]; oral 3.6, 12 and 36 mg/kg/day, 3 months): Dose-related increase in salivation, decrease in hemoglobin | adenomas of the renal cortical tubular epithelium ([7]; oral, 12 months, 23 mg/kg/day): occurred in 2 females in the high dose | findings in pregnant rats ([8]; 2.5 mg/kg/day): No such effects were found | findings in pregnant rats ([8]; 5 mg/kg/day): increase above controls in the inc idence of resorptions and a decrease in litter size | perinatal and postnatal study findings, high dose group ([8]; female rats, 8 mg/kg/day, last trimester and lactation): An increase in fetal resorption | general reproductive performance ([8]; female rats, oral 0.25, 0.75 and 3.0 mg/kg/day): no adverse effect on estrous cyclicity | litter size, birth weight or viability of the offspring ([8]; female rats, oral 0.5, 2.5 and 5 mg/kg/day, days 6-15 of pregnancy): no effect on litter size | chemotaxis [9]: inhibited | tissue gold concentration ([10]; rat tissues): highest in the kidneys | absorption after oral dosing ([10]; rat): 19% | blood gold in plasma proteins ([10]; rat): 35% | blood gold in red blood cells ([10]; rat): 65% | urinary excretion ([10]; rat): 10% | elimination in feces ([10]; single oral dose, within 21 days, rat): 79%
